ChEMBL document CHEMBL3600349 (Bioorg Med Chem Lett, 2015)

Key:
[1] = Half life in rat liver microsomes; assay type: ADME
U-937 [2] = experiment: Toxicity in human U937 cells assessed as first effect concentration for phospholipidosis by nile red uptake assay; assay type: cell-based
hERG (KCNH2) = hERG (KCNH2) (Homo sapiens, UniProt Q12809); experiment: Inhibition of human ERG at 10 uM by patch clamp assay
[3] = Intrinsic clearance in human hepatocytes assessed per 10^6 cells; assay type: ADME, cell-based, Hepatocyte; details: read-out: CLH
[4] = Lipophilicity, log P of the compound by HPLC analysis; assay type: physicochemical
[5] = biological target: T1, Melanin-concentrating hormone receptor 1 (Homo sapiens, UniProt Q99705); experiment: Displacement of [125I]-MCH from human MCH-R1 expressed in CHO/Galpha16 cells after 60 mins by scintillation counting; assay type: cell-based
T1 sequence (Q99705 whole entry): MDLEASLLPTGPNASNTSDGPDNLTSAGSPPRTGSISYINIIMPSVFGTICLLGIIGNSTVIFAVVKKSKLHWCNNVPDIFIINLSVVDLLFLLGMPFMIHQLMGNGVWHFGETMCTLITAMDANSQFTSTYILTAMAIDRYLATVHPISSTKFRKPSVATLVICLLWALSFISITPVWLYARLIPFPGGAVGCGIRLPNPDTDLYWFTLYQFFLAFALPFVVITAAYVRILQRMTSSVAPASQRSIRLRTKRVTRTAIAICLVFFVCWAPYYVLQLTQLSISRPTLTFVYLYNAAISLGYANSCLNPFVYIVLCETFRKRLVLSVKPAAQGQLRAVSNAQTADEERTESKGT

U-937 [6] = experiment: Cytotoxicity against human U937 cells; assay type: cell-based
[7] = Mean residence time in iv dosed cynomolgus monkey; assay type: ADME, organism-based, Macaca fascicularis; details: in vivo
Cynomolgus monkey [8] = experiment: Cardiotoxicity in conscious cynomolgus monkey assessed as myocardial contraction at 3 to 30 mg/kg, po; assay type: toxicity, organism-based, Macaca fascicularis, Myocardium; details: in vivo
[9] = Aqueous solubility of the compound at pH 7.4; assay type: physicochemical
Rattus norvegicus [10] = experiment: Toxicity in diet-induced obese Wistar rat model at 6 to 10 mg/kg, po bid after 4 weeks; assay type: organism-based; details: in vivo, 672 h
[11] = Volume of distribution at steady state in rat; assay type: ADME, organism-based; details: in vivo, read-out: Vdss
[12] = Mean residence time in iv dosed rat; assay type: ADME, organism-based; details: in vivo
[13] = Aqueous solubility of the compound at pH 6.8; assay type: physicochemical
[14] = Oral bioavailability in cynomolgus monkey; assay type: ADME, organism-based, Macaca fascicularis; details: in vivo
Cytochrome P450 2C19 = Cytochrome P450 2C19 (Homo sapiens, UniProt P33261); experiment: Inhibition of CYP2C19 (unknown origin); assay type: ADME
Sequence of Cytochrome P450 2C19 (P33261 whole entry): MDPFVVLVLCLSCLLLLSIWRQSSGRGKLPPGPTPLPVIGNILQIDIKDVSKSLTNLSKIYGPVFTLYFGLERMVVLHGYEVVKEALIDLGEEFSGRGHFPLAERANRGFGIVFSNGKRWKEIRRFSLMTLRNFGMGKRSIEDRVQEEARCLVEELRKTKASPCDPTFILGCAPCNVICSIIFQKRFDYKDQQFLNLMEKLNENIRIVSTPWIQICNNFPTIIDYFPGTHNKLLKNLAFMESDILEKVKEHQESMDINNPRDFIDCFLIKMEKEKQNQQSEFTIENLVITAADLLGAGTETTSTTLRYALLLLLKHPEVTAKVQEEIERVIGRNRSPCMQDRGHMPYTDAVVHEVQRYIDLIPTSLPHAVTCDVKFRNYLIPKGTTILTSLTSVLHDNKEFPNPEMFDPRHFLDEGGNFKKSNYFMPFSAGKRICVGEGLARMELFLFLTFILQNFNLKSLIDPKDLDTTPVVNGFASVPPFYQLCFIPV

Rattus norvegicus [15] = experiment: Antiobesity activity in diet-induced obese Wistar rat model assessed as reduction of body weight at 3 mg/kg, po bid after 4 weeks; assay type: functional; set-up: scale not given: the % may be the effect or the level left
Rattus norvegicus [16] = experiment: Antiobesity activity in diet-induced obese Wistar rat model assessed as reduction of body weight at 10 mg/kg, po bid after 4 weeks; assay type: functional; set-up: scale not given: the % may be the effect or the level left
Cynomolgus monkey [17] = experiment: Cardiotoxicity in conscious cynomolgus monkey assessed as left ventricular pressure at 3 to 30 mg/kg, po; assay type: toxicity, organism-based, Macaca fascicularis, Heart left ventricle; details: in vivo
Rattus norvegicus [18] = species: Rattus norvegicus; experiment: Clearance in rat relative to hepatic blood flow; assay type: ADME, organism-based, Liver; details: in vivo
[19] = Apparent permeability from apical to basolateral side in human Caco2 cells at 10 uM; assay type: ADME, cell-based; details: Caco-2
[20] = Distribution coefficient, log D of the compound; assay type: physicochemical; details: octanol/water
Cytochrome P450 2C9 = Cytochrome P450 2C9 (Homo sapiens, UniProt P11712); experiment: Inhibition of CYP2C9 (unknown origin); assay type: ADME
Sequence of Cytochrome P450 2C9 (P11712 whole entry): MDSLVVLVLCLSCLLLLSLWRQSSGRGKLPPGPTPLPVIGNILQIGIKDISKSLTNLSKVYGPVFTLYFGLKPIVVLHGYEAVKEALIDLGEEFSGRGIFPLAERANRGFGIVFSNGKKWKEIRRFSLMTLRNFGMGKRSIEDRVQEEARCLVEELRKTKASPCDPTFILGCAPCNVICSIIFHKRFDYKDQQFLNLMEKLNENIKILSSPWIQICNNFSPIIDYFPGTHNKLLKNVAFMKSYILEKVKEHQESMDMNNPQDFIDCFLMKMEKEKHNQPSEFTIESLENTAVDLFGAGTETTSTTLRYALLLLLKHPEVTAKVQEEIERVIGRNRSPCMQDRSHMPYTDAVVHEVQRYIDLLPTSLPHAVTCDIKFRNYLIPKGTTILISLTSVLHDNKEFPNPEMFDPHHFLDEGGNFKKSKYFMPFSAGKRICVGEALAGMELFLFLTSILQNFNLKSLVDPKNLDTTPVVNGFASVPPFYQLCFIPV

Canis familiaris = species: Canis familiaris; experiment: Clearance in dog relative to hepatic blood flow; assay type: ADME, organism-based, Canis lupus familiaris, Liver; details: in vivo
[21] = Mean residence time in iv dosed dog; assay type: ADME, organism-based, Canis lupus familiaris; details: in vivo
[22] = Aqueous solubility of the compound at pH 2.2; assay type: physicochemical
[23] = Volume of distribution at steady state in cynomolgus monkey; assay type: ADME, organism-based, Macaca fascicularis; details: in vivo, read-out: Vdss
[24] = Plasma protein binding in human; assay type: ADME, cell-free; details: read-out: PPB (converted)
Rattus norvegicus [25] = experiment: Antiobesity activity in diet-induced obese Wistar rat model assessed as reduction of body weight at 6 mg/kg, po bid after 4 weeks; assay type: functional; set-up: scale not given: the % may be the effect or the level left
Cynomolgus monkey [26] = experiment: Cardiotoxicity in conscious cynomolgus monkey assessed as decrease in heart rate at 30 mg/kg, po; assay type: toxicity, organism-based, Macaca fascicularis; details: in vivo
[27] = Oral bioavailability in rat; assay type: ADME, organism-based; details: in vivo
[28] = biological target: Histamine H3 receptor (Homo sapiens) (UniProt Q9Y5N1); experiment: Binding affinity to histamine H3 receptor (unknown origin) at 10 uM by radioligand binding assay
Sequence of Histamine H3 receptor (Homo sapiens) (Q9Y5N1 whole entry): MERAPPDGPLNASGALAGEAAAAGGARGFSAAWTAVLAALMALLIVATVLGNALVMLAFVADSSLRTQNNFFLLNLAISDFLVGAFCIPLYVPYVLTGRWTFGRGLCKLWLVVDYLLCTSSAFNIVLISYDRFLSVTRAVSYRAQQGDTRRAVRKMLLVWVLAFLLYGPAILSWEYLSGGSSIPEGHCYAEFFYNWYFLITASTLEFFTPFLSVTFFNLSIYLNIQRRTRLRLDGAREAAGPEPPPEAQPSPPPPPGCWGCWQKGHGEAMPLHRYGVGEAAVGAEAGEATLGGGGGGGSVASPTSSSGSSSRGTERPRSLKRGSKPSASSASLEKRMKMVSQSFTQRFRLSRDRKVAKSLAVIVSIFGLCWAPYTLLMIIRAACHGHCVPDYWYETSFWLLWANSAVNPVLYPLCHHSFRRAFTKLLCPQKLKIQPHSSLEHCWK

[29] = biological target: Voltage-gated inwardly rectifying potassium channel KCNH2 (Homo sapiens, UniProt Q12809); experiment: Inhibition of human ERG by patch clamp assay
Sequence of Voltage-gated inwardly rectifying potassium channel KCNH2 (Q12809 whole entry): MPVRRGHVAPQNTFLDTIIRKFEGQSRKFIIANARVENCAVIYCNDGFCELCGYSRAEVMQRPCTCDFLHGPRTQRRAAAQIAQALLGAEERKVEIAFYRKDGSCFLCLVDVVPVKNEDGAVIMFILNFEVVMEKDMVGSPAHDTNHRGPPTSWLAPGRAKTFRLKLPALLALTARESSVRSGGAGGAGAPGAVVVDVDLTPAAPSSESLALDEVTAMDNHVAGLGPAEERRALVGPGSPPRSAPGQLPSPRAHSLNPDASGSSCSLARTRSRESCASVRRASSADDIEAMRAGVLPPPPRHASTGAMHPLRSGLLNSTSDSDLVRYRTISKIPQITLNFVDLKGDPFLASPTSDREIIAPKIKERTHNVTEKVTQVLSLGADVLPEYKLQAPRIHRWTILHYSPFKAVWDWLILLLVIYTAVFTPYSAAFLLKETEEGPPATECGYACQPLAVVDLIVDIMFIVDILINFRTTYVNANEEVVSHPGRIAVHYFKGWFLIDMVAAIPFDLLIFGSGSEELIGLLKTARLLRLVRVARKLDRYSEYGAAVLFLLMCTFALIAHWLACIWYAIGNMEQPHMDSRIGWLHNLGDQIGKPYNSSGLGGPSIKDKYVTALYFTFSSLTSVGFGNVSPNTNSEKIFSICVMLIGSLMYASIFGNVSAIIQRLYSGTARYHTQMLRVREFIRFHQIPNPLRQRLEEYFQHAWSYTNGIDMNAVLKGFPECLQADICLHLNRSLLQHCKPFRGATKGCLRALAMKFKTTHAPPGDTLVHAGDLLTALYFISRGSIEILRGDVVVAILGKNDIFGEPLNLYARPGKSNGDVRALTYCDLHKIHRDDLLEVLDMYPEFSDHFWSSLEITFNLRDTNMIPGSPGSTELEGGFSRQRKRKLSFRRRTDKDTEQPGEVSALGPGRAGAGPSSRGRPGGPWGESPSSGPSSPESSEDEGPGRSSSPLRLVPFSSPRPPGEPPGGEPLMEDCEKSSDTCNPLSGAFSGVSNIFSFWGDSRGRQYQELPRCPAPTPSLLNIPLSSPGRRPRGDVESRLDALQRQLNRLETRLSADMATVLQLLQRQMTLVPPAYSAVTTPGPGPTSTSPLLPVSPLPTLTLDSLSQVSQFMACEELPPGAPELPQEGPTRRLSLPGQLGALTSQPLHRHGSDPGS

[30] = biological target: Melanin-concentrating hormone receptor 1 (Rattus norvegicus, UniProt P97639); experiment: Binding affinity to rat MCH-R1
Sequence of Melanin-concentrating hormone receptor 1 (Rattus norvegicus, UniProt P97639) (P97639 whole entry): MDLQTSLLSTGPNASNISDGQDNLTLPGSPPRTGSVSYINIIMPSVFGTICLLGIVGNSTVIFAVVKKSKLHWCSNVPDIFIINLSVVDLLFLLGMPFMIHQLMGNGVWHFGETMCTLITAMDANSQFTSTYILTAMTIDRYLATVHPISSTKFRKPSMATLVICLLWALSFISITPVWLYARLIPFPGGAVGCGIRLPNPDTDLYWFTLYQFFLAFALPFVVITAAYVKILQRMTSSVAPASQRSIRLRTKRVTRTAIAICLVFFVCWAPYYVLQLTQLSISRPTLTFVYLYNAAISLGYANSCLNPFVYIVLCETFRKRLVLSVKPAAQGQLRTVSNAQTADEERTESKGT

[31] = Plasma protein binding in rat; assay type: ADME, cell-free; details: read-out: PPB (converted)
[32] = biological target: T1, Melanin-concentrating hormone receptor 1; experiment: Binding affinity to human MCH-R1 expressed in CHO/Galpha16 cells; assay type: cell-based
[33] = Metabolic stability in human hepatocytes relative to hepatic blood flow; assay type: ADME, cell-based, Hepatocyte; details: read-out: Stability
CYP3A4 = CYP3A4 (Homo sapiens, UniProt P08684); experiment: Time dependent inhibition of CYP3A4 (unknown origin) at 25 uM after 30 mins; assay type: ADME
[34] = Efflux ratio in human Caco2 cells at 10 uM; assay type: ADME, cell-based; details: Caco-2
Salmonella typhimurium = experiment: Genotoxicity in Salmonella typhimurium by Ames test; assay type: toxicity, organism-based; details: salmonella enterica subsp. enterica serovar typhimurium
Cytochrome P450 2C8 = biological target: T2, Cytochrome P450 2C8 (Homo sapiens, UniProt P10632); experiment: Inhibition of CYP2C8 (unknown origin); assay type: ADME
T2 sequence (P10632 whole entry): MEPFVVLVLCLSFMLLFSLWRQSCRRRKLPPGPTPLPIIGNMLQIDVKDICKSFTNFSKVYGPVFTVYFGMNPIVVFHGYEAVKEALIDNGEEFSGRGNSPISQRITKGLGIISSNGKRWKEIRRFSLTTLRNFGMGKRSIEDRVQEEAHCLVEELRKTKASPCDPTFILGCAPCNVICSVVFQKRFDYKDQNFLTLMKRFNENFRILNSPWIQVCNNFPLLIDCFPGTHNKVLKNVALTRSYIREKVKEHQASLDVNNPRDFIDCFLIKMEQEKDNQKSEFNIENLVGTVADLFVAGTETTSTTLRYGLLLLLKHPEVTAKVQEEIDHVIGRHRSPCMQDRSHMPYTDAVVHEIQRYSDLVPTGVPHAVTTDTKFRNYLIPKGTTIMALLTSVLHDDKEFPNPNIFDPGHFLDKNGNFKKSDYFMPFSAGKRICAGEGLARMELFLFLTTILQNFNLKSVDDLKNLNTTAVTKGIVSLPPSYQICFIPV

U-937 [35] = experiment: Toxicity in human U937 cells assessed as phospholipidosis at 100 uM by nile red uptake assay; assay type: cell-based; details: u-937, 100 µM
[36] = Total mean residence time in iv dosed cynomolgus monkey; assay type: ADME, organism-based, Macaca fascicularis; details: in vivo
[37] = Metabolic stability in rat hepatocytes relative to hepatic blood flow; assay type: ADME, cell-based, Hepatocyte; details: read-out: Stability
[38] = Plasma protein binding in cynomolgus monkey; assay type: ADME, cell-free, Macaca fascicularis; details: read-out: PPB (converted)
[39] = Oral bioavailability in dog; assay type: ADME, organism-based, Canis lupus familiaris; details: in vivo
[40] = Volume of distribution at steady state in dog; assay type: ADME, organism-based, Canis lupus familiaris; details: in vivo, read-out: Vdss
[41] = Plasma protein binding in dog; assay type: ADME, cell-free, Canis lupus familiaris; details: read-out: PPB (converted)
[42] = Binding affinity to dog MCH-R1; set-up: species or system Canis lupus familiaris
Cytochrome P450 3A4 = Cytochrome P450 3A4 (Homo sapiens, UniProt P08684); experiment: Inhibition of CYP3A4 (unknown origin); assay type: ADME
[43] = Dissociation constant, pKa of the compound; assay type: physicochemical
Cynomolgus monkey [44] = experiment: Cardiotoxicity in conscious cynomolgus monkey assessed as systolic and diastolic blood pressure at 3 to 30 mg/kg, po; assay type: toxicity, organism-based, Macaca fascicularis; details: in vivo
[45] = biological target: T3, Nuclear receptor subfamily 1 group I member 2 (Homo sapiens, UniProt O75469); experiment: Activation of PXR (unknown origin) at 10 uM relative to rifampicin; assay type: ADME
T3 sequence (O75469 whole entry): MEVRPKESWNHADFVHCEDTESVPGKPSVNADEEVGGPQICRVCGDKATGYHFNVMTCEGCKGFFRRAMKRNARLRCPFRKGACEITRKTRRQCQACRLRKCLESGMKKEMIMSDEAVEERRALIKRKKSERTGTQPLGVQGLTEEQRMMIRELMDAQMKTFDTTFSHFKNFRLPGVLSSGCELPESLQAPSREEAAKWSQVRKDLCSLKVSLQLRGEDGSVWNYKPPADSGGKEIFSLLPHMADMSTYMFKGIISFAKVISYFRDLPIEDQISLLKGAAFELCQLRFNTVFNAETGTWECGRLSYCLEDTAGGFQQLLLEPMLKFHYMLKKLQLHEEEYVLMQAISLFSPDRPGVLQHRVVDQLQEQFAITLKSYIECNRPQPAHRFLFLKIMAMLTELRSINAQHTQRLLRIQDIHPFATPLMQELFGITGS

[46] = Aqueous solubility of the compound at pH 4.5; assay type: physicochemical
[47] = Total mean residence time in iv dosed dog; assay type: ADME, organism-based, Canis lupus familiaris; details: in vivo
Cynomolgus monkey [48] = experiment: Clearance in cynomolgus monkey relative to hepatic blood flow; assay type: ADME, organism-based, Macaca fascicularis, Liver; details: in vivo
[49] = Total mean residence time in iv dosed rat; assay type: ADME, organism-based; details: in vivo
[50] = Metabolic stability in cynomolgus monkey hepatocytes relative to hepatic blood flow; assay type: ADME, cell-based, Macaca fascicularis, Hepatocyte; details: read-out: Stability
Cytochrome P450 2D6 = Cytochrome P450 2D6 (Homo sapiens, UniProt P10635); experiment: Inhibition of CYP2D6 (unknown origin); assay type: ADME
Sequence of Cytochrome P450 2D6 (P10635 whole entry): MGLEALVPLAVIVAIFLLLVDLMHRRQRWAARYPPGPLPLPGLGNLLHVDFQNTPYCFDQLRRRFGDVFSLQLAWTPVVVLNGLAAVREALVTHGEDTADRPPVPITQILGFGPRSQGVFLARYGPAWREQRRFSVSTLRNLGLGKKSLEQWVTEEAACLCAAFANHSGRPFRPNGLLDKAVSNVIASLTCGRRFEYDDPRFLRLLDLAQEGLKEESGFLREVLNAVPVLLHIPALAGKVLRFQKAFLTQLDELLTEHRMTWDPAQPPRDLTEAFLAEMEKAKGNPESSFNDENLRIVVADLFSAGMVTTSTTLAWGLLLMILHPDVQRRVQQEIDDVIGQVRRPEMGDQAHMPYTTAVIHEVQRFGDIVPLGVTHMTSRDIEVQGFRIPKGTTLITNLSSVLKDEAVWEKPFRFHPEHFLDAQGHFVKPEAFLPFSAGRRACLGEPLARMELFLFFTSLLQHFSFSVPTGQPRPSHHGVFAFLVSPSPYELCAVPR

Sequence of hERG (KCNH2) (Q12809 whole entry): as the sequence (Q12809 whole entry) above

## Cc1cc(CN(C)C)ccc1C(=O)Cn1ccc(OCc2ccc(Br)cn2)cc1=O
[1]
  half-life: 45 min
U-937 [2]
  Activity: 50 µM
hERG (KCNH2)
  inhibition at 10 µM: 42%
[3]
  hepatocyte CLint: 21 µL/min/1e6 cells
[4]
  logP: 2.8

## Cc1cc(CN(C)C)ccc1C(=O)Cn1ccc(OCc2ccc(Cl)cn2)cc1=O
[1]
  half-life: 44 min
U-937 [2]
  Activity: 50 µM
[5]
  IC50: 33 nM
hERG (KCNH2)
  inhibition at 10 µM: 41%
[3]
  hepatocyte CLint: 14 µL/min/1e6 cells
[4]
  logP: 2.7

## Cc1cc(CN(C)C)ccc1C(=O)Cn1ncc(OCc2ccc(Br)cn2)cc1=O
[1]
  half-life: 29 min
U-937 [2]
  Activity: 50 µM
[3]
  hepatocyte CLint: 12 µL/min/1e6 cells
[4]
  logP: 3.4

## Cc1cc(CN(C)C)ccc1C(=O)Cn1ncc(OCc2ccccc2)cc1=O
[1]
  half-life: 15 min
U-937 [2]
  Activity: 50 µM
[5]
  IC50: 8.7 nM
hERG (KCNH2)
  inhibition at 10 µM: 88%
[3]
  hepatocyte CLint: 4.8 µL/min/1e6 cells
[4]
  logP: 3.8

## CN(C)Cc1ccc(C(=O)Cn2ncc(OCc3ccc(Br)cn3)cc2=O)cc1
[1]
  half-life: 7 min
[5]
  IC50: 22 nM
[3]
  hepatocyte CLint: 58 µL/min/1e6 cells
[4]
  logP: 3.1

## COc1ccc(COc2cnn(CC(=O)c3ccc(CN(C)C)cc3C)c(=O)c2)nc1
[1]
  half-life: > 45 min
U-937 [6]
  IC50: 506000 nM
[7]
  MRT: 72 min
Cynomolgus monkey [8]
  Activity: Non-toxic
[9]
  solubility: > 1000 µg/mL
Rattus norvegicus [10]
  Activity: Non-toxic
[11]
  Vd: 3.3 L/kg
[12]
  MRT: 30 min
[13]
  solubility: > 1000 µg/mL
[14]
  bioavailability: 44%
U-937 [2]
  Activity: 200 µM
Cytochrome P450 2C19
  IC50: > 50000 nM
Rattus norvegicus [15]
  Activity: 7.7%
Rattus norvegicus [16]
  Activity: 10.2%
Cynomolgus monkey [17]
  Activity: Non-toxic
Rattus norvegicus [18]
  CL: 164%
[19]
  Papp A→B at 10 µM: 52 ×10⁻⁶ cm/s
[20]
  logD: 1.4
Cytochrome P450 2C9
  IC50: > 50000 nM
[5]
  IC50: 22 nM
hERG (KCNH2)
  inhibition at 10 µM: 17%
Canis familiaris
  CL: 229%
[21]
  MRT: 42 min
[22]
  solubility: > 1000 µg/mL
[23]
  Vd: 1.3 L/kg
[24]
  fraction unbound: 0.07
Rattus norvegicus [25]
  Activity: 10.1%
Cynomolgus monkey [26]
  Activity: Non-toxic
[27]
  bioavailability: 53%
[3]
  hepatocyte CLint: 3.3 µL/min/1e6 cells
[28]
  Activity: 78%
[29]
  IC50: 16000 nM
[30]
  IC50: 18 nM
[31]
  fraction unbound: 0.1
[32]
  Ki: 14 nM
[33]
  hepatic extraction ratio: 0.26
CYP3A4
  inhibition at 0.5 h, 25 µM: 85%
[34]
  efflux ratio at 10 µM: 1
Salmonella typhimurium
  Activity: Non-toxic
Cytochrome P450 2C8
  IC50: > 50000 nM
U-937 [35]
  Activity: Non-toxic
[36]
  MRT: 132 min
[37]
  hepatic extraction ratio: 0.78
[38]
  fraction unbound: 0.1
[39]
  bioavailability: 1.4%
[4]
  logP: 2.3
[40]
  Vd: 2.9 L/kg
[41]
  fraction unbound: 0.2
[42]
  IC50: 23 nM
Cytochrome P450 3A4
  IC50: 18000 nM
[43]
  pKa: 2.8
Cynomolgus monkey [44]
  Activity: Non-toxic
[45]
  Activity: 17%
[46]
  solubility: > 1000 µg/mL
[47]
  MRT: 174 min
Cynomolgus monkey [48]
  CL: 40%
[49]
  MRT: 204 min
[50]
  hepatic extraction ratio: 0.43
Cytochrome P450 2D6
  IC50: > 50000 nM

## Cc1cc(CN(C)C)ccc1C(=O)Cn1ncc(OCc2ccc(Cl)cn2)cc1=O
[1]
  half-life: > 45 min
U-937 [2]
  Activity: 50 µM
[4]
  logP: 3.1
